Data reported in US9695155B2, “Herbicidal substituted pyrimidinyloxy benzene compounds” (E. I. DU PONT DE NEMOURS AND COMPANY, priority 2013, dated 2017).

Columns and labels:
lambsquarters = test: Test D postemergence; assay type: in vivo, Chenopodium album; settings: Chenopodium album, post-emergence; for pest or weed control at 16 g/ha: 16 g ai/ha, scale 0-100, read-out: Plant response rating, Lambsquarters; for pest or weed control at 31 g/ha: 31 g ai/ha; for pest or weed control at 31 g/ha / pest or weed control at 62 g/ha / pest or weed control at 125 g/ha: scale 0 to 100 (0 no effect, 100 complete control), read-out: Plant response rating, Lambsquarters; for pest or weed control at 62 g/ha: 62 g ai/ha; for pest or weed control at 125 g/ha: 125 g ai/ha
Description: (§1) Seeds of plant species selected from bluegrass (annual bluegrass, Poa annua), blackgrass (Alopecurus myosuroides), canarygrass (littleseed canarygrass, Phalaris minor), chickweed (common chickweed, Stellaria media), galium (catchweed bedstraw, Galium aparine), bromegrass, downy (downy bromegrass, Bromus tectorum), field poppy (Papaver rhoeas), field violet (Viola arvensis), green foxtail (Setaria viridis), deadnettle (henbit deadnettle, Lamium amplexicaule), Italian ryegrass (Lolium multiflorum), kochia (Kochia scoparia), lambsquarters (Chenopodium album), oilseed rape (Brassica napus), pigweed (Amaranthus retroflexus), chamomile (scentless chamomile, Matricaria inodora), Russian thistle (Salsola kali), speedwell (bird's-eye speedwell, Veronica persica), spring barley (Hordeum vulgare), spring wheat (Triticum aestivum), wild buckwheat (Polygonum convolvulus), wild mustard (Sinapis arvensis), wild oat (Avena fatua), wild radish (Raphanus raphanistrum), windgrass (Apera spica-venti), winter barley (Hordeum vulgare), and winter wheat (Triticum aestivum) were planted into a silt loam soil and treated preemergence with test chemicals formulated in a non-phytotoxic solvent mixture which included a surfactant.
(§2) At the same time, these species were planted in pots containing Redi-Earth® planting medium (Scotts Company, 14111 Scottslawn Road, Marysville, Ohio 43041) comprising spaghnum peat moss, vermiculite, wetting agent and starter nutrients and treated with postemergence applications of the test chemicals formulated in the same manner. Plants ranged in height from 2 to 18 cm (1- to 4-leaf stage). Treated plants and controls were maintained in a controlled growth environment for 7 to 21 days after which time all species were compared to controls and visually evaluated. Plant response ratings, summarized in Table D, are based on a scale of 0 to 100 where 0 is no effect and 100 is complete control. A dash (-) response means no test result.

kochia = test: Test D preemergence; assay type: in vivo, Kochia scoparia; settings: Bassia scoparia, pre-emergence; for pest or weed control at 16 g/ha: 16 g ai/ha, scale 0 (no effect) to 100 (complete control), read-out: Plant response rating, Kochia; for pest or weed control at 31 g/ha: 31 g ai/ha; for pest or weed control at 31 g/ha / pest or weed control at 62 g/ha / pest or weed control at 125 g/ha: scale 0-100, read-out: Plant response rating, Kochia; for pest or weed control at 62 g/ha: 62 g ai/ha; for pest or weed control at 125 g/ha: 125 g ai/ha
Description: as §1, §2

chickweed = test: Test D preemergence; assay type: in vivo, Stellaria media; settings: Stellaria media, pre-emergence; for pest or weed control at 16 g/ha: 16 g ai/ha, scale 0 (no effect) to 100 (complete control), read-out: Plant response rating, Chickweed; for pest or weed control at 31 g/ha: 31 g ai/ha; for pest or weed control at 31 g/ha / pest or weed control at 62 g/ha / pest or weed control at 125 g/ha: scale 0-100, read-out: Plant response rating, Chickweed; for pest or weed control at 62 g/ha: 62 g ai/ha; for pest or weed control at 125 g/ha: 125 g ai/ha
Description: as §1, §2

galium [1] = test: Test D preemergence; assay type: in vivo, Galium aparine; settings: Galium, pre-emergence; for pest or weed control at 16 g/ha: 16 g ai/ha, scale 0 (no effect) to 100 (complete control), read-out: Plant response rating, Galium; for pest or weed control at 31 g/ha: 31 g ai/ha; for pest or weed control at 31 g/ha / pest or weed control at 62 g/ha / pest or weed control at 125 g/ha: scale 0-100, read-out: Plant response rating, Galium; for pest or weed control at 62 g/ha: 62 g ai/ha; for pest or weed control at 125 g/ha: 125 g ai/ha
Description: as §1, §2

green foxtail = test: Test D preemergence; assay type: in vivo, Setaria viridis; settings: Setaria viridis, pre-emergence; for pest or weed control at 16 g/ha: 16 g ai/ha, scale 0 (no effect) to 100 (complete control), read-out: Plant response rating, Foxtail, Green; for pest or weed control at 31 g/ha: 31 g ai/ha; for pest or weed control at 31 g/ha / pest or weed control at 62 g/ha / pest or weed control at 125 g/ha: scale 0-100, read-out: Plant response rating, Foxtail, Green; for pest or weed control at 62 g/ha: 62 g ai/ha; for pest or weed control at 125 g/ha: 125 g ai/ha
Description: as §1, §2

Italian ryegrass = test: Test D postemergence; assay type: in vivo, Lolium multiflorum; settings: Lolium multiflorum, post-emergence; for pest or weed control at 16 g/ha: 16 g ai/ha, scale 0-100, read-out: Plant response rating, Ryegrass, Italian; for pest or weed control at 31 g/ha: 31 g ai/ha; for pest or weed control at 31 g/ha / pest or weed control at 62 g/ha / pest or weed control at 125 g/ha: scale 0 to 100 (0 no effect, 100 complete control), read-out: Plant response rating, Ryegrass, Italian; for pest or weed control at 62 g/ha: 62 g ai/ha; for pest or weed control at 125 g/ha: 125 g ai/ha
Description: as §1, §2

galium [2] = test: Test D postemergence; assay type: in vivo, Galium aparine; settings: Galium, post-emergence; for pest or weed control at 16 g/ha: 16 g ai/ha, scale 0-100, read-out: Plant response rating, Galium; for pest or weed control at 31 g/ha: 31 g ai/ha; for pest or weed control at 31 g/ha / pest or weed control at 62 g/ha / pest or weed control at 125 g/ha: scale 0 to 100 (0 no effect, 100 complete control), read-out: Plant response rating, Galium; for pest or weed control at 62 g/ha: 62 g ai/ha; for pest or weed control at 125 g/ha: 125 g ai/ha
Description: as §1, §2

Structure (SMILES) | pest or weed control at 16 g/ha (lambsquarters) [%] | pest or weed control at 31 g/ha (lambsquarters) [%] | pest or weed control at 62 g/ha (lambsquarters) [%] | pest or weed control at 125 g/ha (lambsquarters) [%] | pest or weed control at 16 g/ha (kochia) [%] | pest or weed control at 31 g/ha (kochia) [%] | pest or weed control at 62 g/ha (kochia) [%] | pest or weed control at 125 g/ha (kochia) [%] | pest or weed control at 16 g/ha (chickweed) [%] | pest or weed control at 31 g/ha (chickweed) [%] | pest or weed control at 62 g/ha (chickweed) [%] | pest or weed control at 125 g/ha (chickweed) [%] | pest or weed control at 16 g/ha (galium [1]) [%] | pest or weed control at 31 g/ha (galium [1]) [%] | pest or weed control at 62 g/ha (galium [1]) [%] | pest or weed control at 125 g/ha (galium [1]) [%] | pest or weed control at 16 g/ha (green foxtail) [%] | pest or weed control at 31 g/ha (green foxtail) [%] | pest or weed control at 62 g/ha (green foxtail) [%] | pest or weed control at 125 g/ha (green foxtail) [%] | other results
FC(F)(F)COc1cnn(-c2ccccc2Oc2ncc(Cl)cn2)c1 [Compound 138, 5-chloro-2-[2-[4-(2,2,2-trifluoroethoxy)-1H-pyrazol-1-yl]phenoxy]pyrimidine] | 55 | 60 | 60 | 60 | 20 | 20 | 35 | 55 | 100 | 100 | 100 | 100 | 25 | 40 | 90 | 100 | 0 | 0 | 20 | 100 | pest or weed control at 16 g/ha (Italian ryegrass): 5%; pest or weed control at 31 g/ha (Italian ryegrass): 0%; pest or weed control at 62 g/ha (Italian ryegrass): 0%; pest or weed control at 125 g/ha (Italian ryegrass): 5%; pest or weed control at 16 g/ha (galium [2]): 70%; pest or weed control at 31 g/ha (galium [2]): 70%; pest or weed control at 62 g/ha (galium [2]): 75%; pest or weed control at 125 g/ha (galium [2]): 75%
FC(F)(F)c1cn(-c2ccccc2Oc2ncc(Cl)cn2)nn1 [Compound 166, 5-chloro-2-[2-[4-(trifluoromethyl)-1H-1,2,3-triazol-1-yl]phenoxy]pyrimidine] | 80 | 90 | 95 | 95 | 35 | 65 | 95 | 100 | 85 | 95 | 95 | 100 | 65 | 80 | 100 | 100 | 25 | 65 | 100 | 100 | pest or weed control at 16 g/ha (Italian ryegrass): 10%; pest or weed control at 31 g/ha (Italian ryegrass): 20%; pest or weed control at 62 g/ha (Italian ryegrass): 25%; pest or weed control at 125 g/ha (Italian ryegrass): 40%; pest or weed control at 16 g/ha (galium [2]): 70%; pest or weed control at 31 g/ha (galium [2]): 75%; pest or weed control at 62 g/ha (galium [2]): 80%; pest or weed control at 125 g/ha (galium [2]): 90%
